Source: patent US20180360972A1, “THERAPEUTIC COMPOUNDS” (REGENTS OF THE UNIVERSITY OF MINNESOTA, priority 2017, published 2018)
Entries after “also recorded” stand apart in the source; their conditions may differ. Square brackets hold non-standard residues; d marks the D form. Peptide text beside a SMILES is read from it.

Legend:
[1] = molecular target: T1, hMC4R (Homo sapiens, UniProt P32245); assay: β-Arrestin Recruitment | EC50 (nM)
T1 construct: Flag; expressed in transfected cells
Target sequence in this assay (P32245 whole entry, looked up): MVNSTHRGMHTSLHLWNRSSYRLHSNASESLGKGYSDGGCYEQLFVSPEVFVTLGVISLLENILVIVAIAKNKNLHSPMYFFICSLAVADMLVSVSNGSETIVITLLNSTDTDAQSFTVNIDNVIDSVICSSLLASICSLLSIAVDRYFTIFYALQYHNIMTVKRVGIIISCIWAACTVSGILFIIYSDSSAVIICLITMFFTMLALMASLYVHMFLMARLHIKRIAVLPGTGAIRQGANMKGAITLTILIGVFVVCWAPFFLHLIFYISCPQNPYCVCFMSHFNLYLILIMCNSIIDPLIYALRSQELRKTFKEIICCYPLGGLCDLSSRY

[2] = molecular target: T1, hMC4R; assay: cAMP Signaling | EC50 (nM)
Method: Table printed on a drawing sheet, Figure 20
The cAMP signaling potency was determined by AlphaScreen™ assays. […] The reported errors are the standard error of the mean (SEM) determined from at least three independent experiments. Changes less than 3-fold were considered to be within the inherent experimental assay error.
Target sequence in this assay (P32245 whole entry, looked up): as above

[3] = molecular target: T1, hMC4R; assay: AlphaScreen cAMP functional bioassay, hMC4R; format: cell-based; conditions: HEK293 cells stably expressing hMC4R
Method: Upon agonist stimulation, melanocortin receptors are known to signal through a Gαs-protein mediated signaling pathway that results in intracellular cAMP accumulation.
Stable populations were selected for using G418 selection (0.7-1.0 mg/mL) and used in bioassays unless indicated otherwise. In vitro experimental ligands were dissolved to a 10^−2 M stock in DMSO and stored at −20° C. Subsequent dilutions were performed in each assay's specific buffer to achieve the final concentration in the well. The ligands were assayed as TFA salts.
AlphaScreen cAMP Functional Bioassay
The AlphaScreen® assay was performed as described by manufacturer.
Cells were removed from plates using Gibco® Versene solution and pelleted by centrifugation (Sorvall Super T21 high speed centrifuge, swinging bucket rotor) at 800 rpm for five minutes. […] A 10 μL aliquot of cell suspension was counted manually using a hemocytometer after addition of Trypan blue dye (BioRad). Cells were again pelleted by centrifugation, and DPBS was gently aspirated. The pelleted cells were then resuspended in a solution of freshly made stimulation buffer (Hank's Balanced Salt Solution [HBSS 10× [−] sodium bicarbonate] and [−] phenol red, Gibco®], 0.5 mM isobutylmethylxanthine [IBMX], 5 mM HEPES buffer solution [1M, Gibco®], 0.1% bovine serum albumin [BSA] in Milli-Q water, pH=7.4) and anti-cAMP acceptor beads (1.0 unit per well, AlphaScreen®). […] The cells were then stimulated with ligand diluted in stimulation buffer to achieve their final concentrations in the well ranging from 10^−13 to 10^−4 M. The stimulated plates were incubated in a dark laboratory drawer at room temperature for two hours.
Meanwhile, a biotinylated cAMP/streptavidin donor bead working solution was made by adding biotinylated cAMP (1 Unit/well, AlphaScreen®) and streptavidin donor beads (1 Unit/well, AlphaScreen®) to a lysis buffer (10% Tween-20, 5 mM HEPES buffer solution [1M, Gibco®], 0.1% bovine serum albumin [BSA] in Milli-Q water, pH=7.4). After the two hour stimulation, the biotinylated cAMP/Streptavidin donor bead working solution was added to each well under green light and mixed well by pipetting up and down. The cells were incubated for another two hours at room temperature in a dark drawer at room temperature. The plate was then read on an EnSpire™ Alpha plate reader using a pre-normalized assay protocol set by the manufacturer. Assays were performed with duplicate data points on each plate and repeated in at least three independent experiments.
Dose response curves were analyzed using the PRISM program (v4.0; GraphPad Inc.).
Target sequence in this assay (P32245 whole entry): as the sequence (P32245 whole entry, looked up) above

[4] = tested on: male MC3RKO mice; assay: ICV administration, TSE metabolic cages, male MC3RKO mice; format: in vivo; conditions: nocturnal paradigm; 2.5 to 5 nmols
Method: (§1) All experiments were performed in accordance with the Institutional Animal Care and Use Committee (IACUC) at the University of Minnesota. Female and male littermates with mixed background from C57BL/6J and 129/Sv inbred strains were 8 weeks old at the time of surgeries. Mice were individually housed after surgeries and for the remainder of the experiment. Mice were maintained on a 12 hr light/dark cycle (Lights off was at 11:59 AM) in a temperature controlled room (23-25° C.). In the nocturnal feeding paradigm, mice had free access to normal chow (Harlan Teklad 2018 Diet: 18.6% crude protein, 6.2% crude fat, 3.5% crude fiber, with energy density of 3.1 kcal/g). […] Mice had free access to tap water throughout all the experiments. The cannula placement validation studies and conventional cage studies were performed in standard mouse polycarbonate conventional cages provided by University of Minnesota's Research Animal Resources (RAR). Weekly cage changes were conducted by lab research staff.
(§2) Mice were anesthetize with a mixture of ketamine (100 mg/kg) and xylazine (5 mg/kg) and were positioned in a stereotaxic apparatus (David Kopf Instruments). A 26-gauge cannula (Cat# 81C315GS4SPC; PlasticsOne, Roanoke, Va.) was inserted in the lateral cerebral ventricle at the coordinates 1.0 mm lateral and 0.46 mm posterior to bregma and 2.3 mm ventral to the skull (Franklin, K. B. J. & Paxinos, G. The Mouse Brain in Stereotaxic Coordinates. (Academic Press, 1997)).
(§3) As stated above, conventional cage experiments were performed in standard mouse polycarbonate conventional cages. […] All experiments followed a cross-over paradigm in which the mouse received saline and compound on different days with a washout period in between each treatment. Statistical analysis was performed using SPSS V23 software (IBM) using a multivariate general linear model followed by a Bonferroni's post hoc test. Results are presented as Mean±SEM. Statistically significant was considered p<0.05.
In order to more clearly understand the effects of the biased agonism at the MC4R, the effects of administration of CJL-5-58 was explored in MC3R knockout (KO) mice and MC4RKO mice. […] Adverse reactions included two mice dying after the 5 nmol dose. […] The large error in activity may serve as an indication of toxicity. It is currently difficult to decipher whether the adverse reactions observed are due to paradigm effects, genotype difference, or compound toxicity.

[5] = tested on: wild type mice; assay: ICV administration, conventional cages, wild type mice; format: in vivo; conditions: preliminary conventional cage experiments; fasting paradigm
Method: as §1, §2
(§4) Each mouse was administered hPYY and saline on different days following a crossover design in the nocturnal feeding paradigm. In the nocturnal paradigm, compound is administered 2 hours prior to lights out with free access to food and water throughout the entire experiment. There was at least a 4 day washout period between administration to ensure that normal feeding patterns and body weight returned. Food intake and body weight were manually measured 2, 4, and 6 hours after hPYY or saline administration. A mouse with a validated cannula placement for the TSE cage experiments consumed at least 1.0 g more after hPYY administration compared to saline administration 4 hours post-administration.
as §3

[6] = tested on: male MC4RKO mice; assay: ICV administration, conventional cages, male MC4RKO mice; format: in vivo; conditions: ICV 2.5 to 5 nmols; conventional cages
Method: as §1, §2, §3
In male MC4RKO mice, CJL-5-58 was administered at 5 nmols in both a nocturnal paradigm and a fasting-refeeding paradigm in standard conventional cages (FIG. 15). The dose was well handled in the nocturnal paradigm, but minimal effect was observed.

[7] = molecular target: mMC4R-NanoLuc and mMC4R-HaloTag homodimer (Mus musculus, UniProt P56450); assay: NanoBRET ligand-dependent modulation of BRET signal; conditions: ligand at 10 μM
Method: On the first day, cells were plated into 6 well plates in the morning. In the afternoon of the same day, cells were transiently transfected with mMC4R-NanoLuc® fusion protein and the MC4R-HaloTag® fusion protein by adding FuGene6 Transfection (8 μL/well, Promega), DNA (2 μg/well) in OptiMem medium (Invitrogen) at a total volume of 100 μL/well. […] Cells were incubated with transfection reagent overnight at 5% CO2 at 37° C.
This provides the background signal and was subtracted from the final experimental signal. Plates were then developed 48 to 60 hours after transfection. Two hours before the plates were developed, 10 μL of a 10× aliquot of the ligand diluted in assay buffer was added to each well to yield the final in well concentration (10^−5, 10^−7, or 10^−9M) of each compound. For the assay buffer control, 10 μL of assay buffer was added instead of compound. […] The standard error of the mean (SEM) was derived from at least three independent experiments.

[8] = tested on: male wild type mice; format: in vivo; conditions: nocturnal paradigm; 5.0 or 2.5 nmols CJL-1-124
Method: as §1, §2, §4, §3

mMC4R-NanoLuc and mMC4R-HaloTag homodimer, sequence (P56450 whole entry): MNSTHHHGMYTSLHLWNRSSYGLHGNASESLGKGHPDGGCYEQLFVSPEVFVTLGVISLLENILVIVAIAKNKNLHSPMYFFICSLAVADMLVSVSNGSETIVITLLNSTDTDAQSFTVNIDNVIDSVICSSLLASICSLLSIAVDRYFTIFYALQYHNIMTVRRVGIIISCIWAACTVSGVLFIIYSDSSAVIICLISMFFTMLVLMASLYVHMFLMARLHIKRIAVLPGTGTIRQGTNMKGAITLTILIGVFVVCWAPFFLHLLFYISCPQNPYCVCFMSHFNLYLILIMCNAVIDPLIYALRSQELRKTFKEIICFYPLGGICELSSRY
mMC4R-NanoLuc and mMC4R-HaloTag homodimer, sequence (P56450 whole entry): as above

| EC50 [1] [nM] | EC50 [2] [nM] | Compound | cAMP agonist potency (in words) [3] | adverse reactions / toxicity [4] | adverse effects [5] | toxicity [6] | reduction in BRET signal compared to basal signal [7] [%] | adverse reactions / toxicity [8] |
| --- | --- | --- | --- | --- | --- | --- | --- | --- |
| 1900 ± 600 | 0.95 ± 0.08 | CC(=O)N[C@@H](Cc1c[nH]cn1)C(=O)N[C@H](Cc1ccccc1)C(=O)N[C@@H](CCCNC(=N)N)C(=O)N[C@@H](Cc1c[nH]c2ccccc12)C(=O)N1CCC[C@H]1C(=O)NCC(=O)N1CCC[C@H]1C(=O)NCC(=O)N1CCC[C@H]1C(=O)NCC(=O)N1CCC[C@H]1C(=O)NCC(=O)N1CCC[C@H]1C(=O)NCC(=O)N1CCC[C@H]1C(=O)NCC(=O)N[C@@H](Cc1c[nH]cn1)C(=O)N[C@H](Cc1ccccc1)C(=O)N[C@@H](CCCNC(=N)N)C(=O)N[C@@H](Cc1c[nH]c2ccccc12)C(N)=O [CJL-1-31, Ac-His-DPhe-Arg-Trp-(Pro-Gly)6-His-DPhe-Arg-Trp-NH2] (Ac-H[dF]RWPGPGPGPGPGPGH[dF]RW-NH2) | – | – | – | – | – | – |
| 1600 ± 600 | 5.5 ± 0.7 | CC(=O)N[C@@H](Cc1c[nH]cn1)C(=O)N[C@H](Cc1ccccc1)C(=O)N[C@@H](CCCNC(=N)N)C(=O)N[C@@H](Cc1c[nH]c2ccccc12)C(=O)N1CCC[C@H]1C(=O)NCC(=O)N1CCC[C@H]1C(=O)NCC(=O)N1CCC[C@H]1C(=O)NCC(=O)N1CCC[C@H]1C(=O)NCC(=O)N1CCC[C@H]1C(=O)NCC(=O)N1CCC[C@H]1C(=O)NCC(N)=O [CJL5-35-1, Ac-His-DPhe-Arg-Trp-(Pro-Gly)6-NH2] (Ac-H[dF]RWPGPGPGPGPGPG-NH2) | – | – | – | – | – | – |
| 1500 ± 500 | 1.1 ± 0.07 | N=C(N)NCCC[C@H](NC(=O)[C@@H](Cc1ccccc1)NC(=O)[C@H](Cc1c[nH]cn1)NC(=O)CNC(=O)[C@@H]1CCCN1C(=O)CNC(=O)[C@@H]1CCCN1C(=O)CNC(=O)[C@@H]1CCCN1C(=O)CNC(=O)[C@@H]1CCCN1C(=O)CNC(=O)[C@@H]1CCCN1C(=O)CNC(=O)[C@@H]1CCCN1)C(=O)N[C@@H](Cc1c[nH]c2ccccc12)C(N)=O [CJL-1-41, (Pro-Gly)6-His-DPhe-Arg-Trp-NH2] (H-PGPGPGPGPGPGH[dF]RW-NH2; N-terminus assumed) | – | – | – | – | – | – |
| 280 ± 40 | 1.2 ± 0.3 | CC(=O)N[C@@H](Cc1c[nH]cn1)C(=O)N[C@H](Cc1ccccc1)C(=O)N[C@@H](CCCNC(=N)N)C(=O)N[C@@H](Cc1c[nH]c2ccccc12)C(=O)NCCCOCCOCCOCCCNC(=O)COCC(=O)NCCCOCCOCCOCCCNC(=O)COCC(=O)N[C@@H](Cc1c[nH]cn1)C(=O)N[C@H](Cc1ccccc1)C(=O)N[C@@H](CCCNC(=N)N)C(=O)N[C@@H](Cc1c[nH]c2ccccc12)C(N)=O [CJL-5-72, Ac-His-DPhe-Arg-Trp-(PEDG20)-(PEDG20)-His-DPhe- Arg-Trp-NH2] | – | – | – | – | – | – |
| – | – | CC(=O)N[C@@H](Cc1cnc[nH]1)C(=O)N[C@H](Cc1ccc2ccccc2c1)C(=O)N[C@@H](CCCNC(=N)N)C(=O)N[C@@H](Cc1c[nH]c2ccccc12)C(=O)NCCCOCCOCCOCCCNC(=O)COCC(=O)N[C@@H](Cc1cnc[nH]1)C(=O)N[C@H](Cc1ccccc1)C(=O)N[C@@H](CCCNC(=N)N)C(=O)N[C@@H](Cc1c[nH]c2ccccc12)C(N)=O [CJL-1-124, Ac-His-DNal(2′)-Arg-Trp-(PEDG20)-His-DPhe-Arg-Trp-NH2] | single digit nanomolar agonists | some signs of toxicity were observed; also recorded: Some toxicity was observed | strong adverse effects | some signs of toxicity were observed; also recorded: Some toxicity was observed | ~8 | some signs of adverse reactions observed at higher 5 nmol dose; also recorded: Some toxicity was observed |
